Measured values taken from patent US20240366555A1, “SELECTIVE MTORC2 INHIBITOR AND USES THEREOF” (ALIAD BIOPHARMA, priority 2021, published 2024).
Where two headings read alike, the source gives them in different places.

Experiments:
[1] = molecular target: T1, mTORC2 located in late endosome of dendritic spines (Rattus norvegicus, UniProt P42346); assay: LocaTOR2 assay-immunofluorescent staining in primary cultured cerebral neurons (mGluR-dependent mTORC2 activation); assay type: cell-based; details: neurons pretreated with norathyriol; FIG. 11b
T1 construct: endogenous in cells; host or cells: primary cultured cerebral neurons from SD-rat E16 embryos, transduced by lentivirus only with mCherry-FRB-AKT2 and Rab7-FKBP
Excerpt: By combining Loca-TOR2 assay and immunofluorescence staining, changes in mTORC2 activity located in the late endosome during the induction process of long term depression (LTD) occurring in dendritic spines of primarily cultured cerebral neurons were investigated, and the inhibitory effect of norathyriol on these changes was investigated.
Specifically, mCherry-FRB-AKT2 and Rab7-FKBP were introduced using a lentiviral vector on the primarily cultured cerebral neuron on the DIV5 day, and AP21967 was treated on the DIV17 day to induce binding of FRB and FKBP, and thereby, mCherry-FRB-AKT2 was located in the late endosome. After that, DHPG, which is an mGluR agonist inducing long-term depression, was treated. […] In addition, by measuring Ser473 phosphorylation staining of mCherry-FRB-AKT2 overlapped with PSD-95 staining, which is a protein located in dendritic spines, by immunofluorescent staining, changes in mTORC2 activity located in the late endosome in the dendritic spines can be investigated. After staining using a phospho-Ser473 AKT antibody by immunofluorescent staining, the degree of AKT Ser473 phosphorylation was quantified by counting the number of each fluorescent puncta larger than 0.4 μm or more in size in the dendrites (green). In addition, the dendritic spines were observed by staining with PSD95 antibody (yellow), and the location of mCherry-FRB-AKT2 was investigated by observing mCherry fluorescence (cherry color).
SD-rat gestational age 16-day mice (Orient Bio) were purchased and the mice were anesthetized with CO2 and then embryos were taken out. Until the forebrain was isolated and the meninges were removed, it was performed by the same method as the hippocampal culture, and when the cerebrum was isolated, the dorsal cortex or ventral cortex was cut with a bended syringe needle, and it was collected in new HBSS. The tissue isolated and collected was transferred to a 15 ml tube with a Pasteur pipette, and then in order to remove the remaining meninges and blood vessels, and the like, 2 ml HBSS and 0.25% trypsin of 2 ml were added, and it was reacted in a 37° C. shaker for 10-15 minutes. The cells were settled and the supernatant was removed leaving 1-2 ml, and then trypsin was inactivated by adding DMEM comprising the equal amount of 20% FBS. After centrifugation at 700 rpm for 15 minutes, the supernatant was discarded all and the collected tissue was released, and then Neurobasal culture medium (+glutamate) of 2 ml was added, and titrated with a pipette, and the cells were isolated by changing to a pipette with a narrow end. […] The number of cells was measured with a hemocytometer, and then the cells were seeded in a coated culture dish. […]

[2] = molecular target: mTORC2 (Homo sapiens, UniProt P42345); assay: LocaTOR2 assay in A549 cells (FRB-AKT2 Ser473 phosphorylation); assay type: cell-based; set-up: endogenous in cells; host or cells: A549 (transfected only with the FKBP-recruiter and the FRB-AKT2 reporter); details: for IC50: FIG. 9g
Excerpt: mTORC2 is located in the cell membrane, endosome, ER and mitochondrial membrane. mTORC2 forms an mTORC2 complex as an activated form of ras (ras-GTP) operates as a scaffold in the cell membrane, whereas it forms an mTORC2 complex as mLST8 operates as a scaffold in the endosome. By this difference, the mTORC2 inhibitory effect of norathyriol may be shown differently depending on the subcellular compartment where mTORC2 is located. In order to investigate the mTORC2 inhibitory effect of norathyriol depending on the subcellular compartment location, in vivo LocaTOR2 assay was performed (Ebner et al. (2017) J. Cell Biol. 216:343-353). After introducing FKBP-recruiter selectively located in the membrane of the subcellular compartment and FRB^T2098L-AKT2 which is an mTORC2 substrate, AP21967 was treated for 40 minutes to induce binding between the FKBP-recruiter and FRB-AKT2, and FRB-AKT2 was moved to a specific subcellular compartment. In addition, the degree of phosphorylation of Ser473 of FRB-Akt by mTORC2 located in the site thereof was investigated by immunoblot analysis.

O=c1c2cc(O)c(O)cc2oc2cc(O)cc(O)c12 [norathyriol, 1,3,6,7-tetrahydroxy-9H-xanthen-9-one]
AKT-Ser473 phosphorylation induced by DHPG [1]: measured similarly to the control group level | FRB-AKT2 Ser473 phosphorylation, mitochondria ([2]; A549, Bcl-XL-FKBP recruiter, FIG. 9e): reduced | FRB-AKT2 Ser473 phosphorylation, mTORC2 located in cell membrane ([2]; A549, KRas4B^C30-FKBP recruiter, AP21967, norathyriol at 30 μM and 60 μM, FIG. 9a): not reduced | FRB-AKT2 Ser473 phosphorylation, mTORC2 located in early endosome ([2]; A549, Rab5-FKBP recruiter, FIG. 9b): reduced at a significant level | FRB-AKT2 Ser473 phosphorylation, mTORC2 located in late endosome ([2]; A549, Rab7-FKBP recruiter, FIG. 9c): reduced at a significant level | FRB-AKT2 Ser473 phosphorylation, mTORC2 located in recycling endosome ([2]; A549, Rab11-FKBP recruiter, FIG. 9d): reduced at a significant level | FRB-AKT2 Ser473 phosphorylation, ER ([2]; A549, TcRb-FKBP recruiter, FIG. 9f): reduced | IC50 ([2]; mTORC2 located in cell membrane (plasma membrane), read-out: IC50, mTORC2, PM): > 60 µM | IC50 ([2]; mTORC2 located in early endosome, read-out: IC50, mTORC2, EE): < 30 µM | IC50 ([2]; mTORC2 located in late endosome, read-out: IC50, mTORC2, LE): < 30 µM | IC50 ([2]; mTORC2 located in recycling endosome, read-out: IC50, mTORC2, RE): 40 µM
